Measured values from patent US10562935B2, “Stapled peptides and uses thereof” (London Health Sciences Centre Research Inc., priority 2015, dated 2020).
Where a SMILES comes first, the peptide text is derived from it. Bridges are numbered along the chain shown (N, C = ends). The star is where a group is joined. Biotin = O=C1N[C@H]2[C@H](CS[C@H]2CCCCC(=O)*)N1; AEEA = NCCOCCOCC(=O)O

Assays:
[1] = biotinylated peptide, HA coated ELISA plate
Method: Biotinylated peptides included a 2-[2-(2-aminoethoxy)ethoxy]acetic acid (AEEA) spacer to separate the peptide sequence from the biotin molecule. Five milligrams of biotin-labeled peptide was dissolved in 1 mL phosphate-buffered saline (PBS). This stock solution was further dissolved in 1× Tris-buffered saline (TBS) to generate peptide solutions of 50 μg/mL, 10 μg/mL, 2 μg/mL, 0.4 μg/mL, 0.08 μg/mL, and 0.016 μg/mL. Diluted peptides were added to HA coated ELISA plates (200 μl/well, triplicates, ECHELON kit K-1200). The ELISA plate was incubated over night at 40° C. 200 μL of 1× TBS was used as a negative control. Wells were washed 3 times with 200 μL 1× TBS and then 100 μL pre-diluted streptavidin-HRP (LSAB2 Streptavidin-HRP, DAKO K1016) was added to each well and the ELISA plate was incubated for 1 hour at room temperature. Wells were washed 3 times with 200 μL 1× TBS and 100 μL, 3,3′,5,5′-tetramethylbenzidine (TMB) solution (ECHELON kit K-4800) was added. After a 20 minute incubation at room temperature, 50 μL 1N H2SO4 stop solution was added. Absorbance was measured at 450 nm using a SYNERGY H4 (BioTek) plate reader.
HA coated ELISA plates were used, with incubation of varying concentrations of the test peptides and the analysis was carried out in triplicate for each concentration.

circular dichroism = settings: Milli-Q water; pH ns; ns °C; 0.5 mM

Biotin-AEEA-(cyclo-6,10)-VSKLR[EQLVK]RKQN-NH2 [Compound 287]
peptide concentration required for equivalent interaction with HA [1]: 80 ng/mL

{Biotin-AEEA}-VSKLRSQLVKRKQN-NH2 [Compound 284]
peptide concentration required for equivalent interaction with HA [1]: 10000 ng/mL

CC(C)C[C@H](NC(=O)[C@H](CCCCN)NC(=O)[C@H](CO)NC(=O)[C@@H](N)C(C)C)C(=O)N[C@@H](CCCNC(=N)N)C(=O)N[C@@H](CO)C(=O)N[C@H]1CCC(=O)NCCCC[C@@H](C(=O)N[C@@H](CCCCN)C(=O)N[C@@H](CCC(N)=O)C(=O)N[C@@H](CC(N)=O)C(N)=O)NC(=O)[C@H](CCCCN)NC(=O)[C@H](C(C)C)NC(=O)[C@H](CC(C)C)NC1=O (H-VSKLRSELVKKKQN-NH2; lactam 7-11)
helicity (circular dichroism): -1570 MRE222
